Results taken from US4003936A, “2-Hydrocinnampyl-1,3-cyclopentanediones” (Zaidan Hojin Biseibutsu Kagaku Kenkyu Kai, priority 1970, dated 1977).

Legend:
[1] = molecular target: T1, tyrosine hydroxylase (Bos taurus, UniProt P17289); test: inhibition of tyrosine hydroxylase (method of J. Antibiot. 23, 514 (1970)); assay type: biochemical; design: inhibition: dose or concentration left out as unconfirmed; details: for inhibition at 0.1 mg: at 100 meg. (figure after the slash in the cell); for inhibition at 0.1 mg / inhibition at 0.05 mg / inhibition: read-out: Inhibition of the product (1a) to tyrosine hydroxylase; for inhibition at 0.05 mg: at 50 meg. (figure after the slash in the cell); for inhibition: at 200 meg. (figure after the slash in the cell)
T1 sequence (P17289 1-491): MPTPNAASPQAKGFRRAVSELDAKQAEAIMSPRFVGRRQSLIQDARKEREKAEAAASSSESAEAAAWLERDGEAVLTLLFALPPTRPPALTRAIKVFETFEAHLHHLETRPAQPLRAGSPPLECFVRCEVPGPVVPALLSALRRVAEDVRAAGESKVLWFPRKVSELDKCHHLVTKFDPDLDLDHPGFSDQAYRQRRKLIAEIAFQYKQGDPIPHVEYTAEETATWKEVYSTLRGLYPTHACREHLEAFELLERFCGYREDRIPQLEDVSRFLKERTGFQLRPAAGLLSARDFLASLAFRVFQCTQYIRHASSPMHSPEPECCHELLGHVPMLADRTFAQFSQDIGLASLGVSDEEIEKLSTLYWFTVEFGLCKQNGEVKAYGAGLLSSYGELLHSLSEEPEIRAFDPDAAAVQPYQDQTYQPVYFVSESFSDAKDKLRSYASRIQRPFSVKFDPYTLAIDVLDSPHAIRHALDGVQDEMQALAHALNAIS
Excerpt: (§1) Pharmacological properties of the new compounds of the present invention are now described. The new compounds of the present invention have been examined for their biological activities, and their inhibition to tyrosine hydroxylase are summarised in Table 2 later. The details of the test methods used and the close relationship of the biological activities between in vitro and in vivo are well presented in some published literatures (for example, see "J. Antibiot." 23, 514 (1970) and "J. Am. Chem. Soc." 93, 1285 (1971)). For instance, 2-(2-hydroxyhydrocinnamoyl)-1,3-cyclopentanedione, typical one of the new compounds of the present invention, was tested by dissolving in distilled water (pH was adjusted to 2.5) and administering to mice. […] Effect of this compound on tyrosine hydroxylase was also tested by the method described in the "Journal of Antibiotics" 23, 514 (1970).
In these Examples, various derivatives of 2cinnamoyl-1,3-cyclopentanedione of the formula [IVa] as prepared in Examples 3 - 34 were converted into the corresponding derivatives of 2-hydrocinnamoyl-1,3-cyclopentanedione of the formula [Ia] by hydrogenating them in the same manner as in the catalytic hydrogenation step of Example 1 (3). Nature of R1 and R2 in the resulting hydrogenation products 2-hydrocinnamoyl-1,3-cyclopentanediones [Ia], their yields, melting point and elementary analysis data are summarised in Table 2 with reference to the amount and nature of the catalyst and solvent which were employed in the catalytic hydrogenation step. In Table 2, there are also shown the degrees of inhibition (%) of the produced derivatives of 2-hydrocinnamoyl-1,3-cyclopentanedione [Ia] to tyrosine hydroxylase to provide a measure of their biological properties, the inhibition degrees as shown being determined by the same method as that used to estimate the inhibition % of 2-(2-hydroxyhydrocinnamoyl)-1,3-cyclopentanedione as mentioned above.

[2] = test system: genetically hypertensive rats; test: hypotensive effect in genetically hypertensive rats; assay type: in vivo; details: for blood pressure after injection: 1-22 hours after the injection
Description: (§2) Hydroxylation of tyrosine is the rate-limiting step of norepinephrine biosynthesis. Therefore, inhibition of tyrosine hydroxylase results in inhibition of norepinephrine synthesis in vivo which results in lowering the blood pressure. […] The hypotensive effect can be seen more markedly, when it is given to genetically hypertensive rats which was developed by Prof. Okamoto, Midical School, University of Kyoto. When 6.25 mg/Kg. was intraperitoneally injected to a rat of 185 mm. blood pressure and another rat of 188 mm., then the blood pressure was lowered to […]. and 118-162 mm. respectively during 1-22 hours after the injection. When 125 mg/Kg. was intraperitoneally injected to a rat of 195 mm., the pressure was reduced to 155-166 mm. during 1-22 hours after the injection. […] It caused 20-30% reduction which continued for about 5 days after the last oral administration.

[3] = test system: rats; test: sedative effect after injection of a large dose, rats; assay type: in vivo
[4] = test system: rats; test: blood pressure of rats on daily injection or oral administration; assay type: in vivo
Description: as §2

[5] = test system: hypertensive patients; test: daily administration to hypertensive patients for 30 days; assay type: in vivo, human; details: 300 mcg daily divided into three times
[6] = acute toxicity (LD50) in mice; details: mouse, in vivo, dissolved in distilled water pH 2.5
Excerpt: as §1

[7] = test system: mice; test: sedative effect after injection of a large dose, mice; assay type: in vivo
[8] = oral, daily 3.1, 6.25, 12.5, 25 mg/Kg for three days

## O=C1CCC(=O)C1C(=O)CCc1ccccc1 [Example 35, 2-hydrocinnamoyl-1,3-cyclopentanedione]
[1]
  inhibition at 0.1 mg: 60%

## O=C1CCC(=O)C1C(=O)CCc1ccccc1O [Example 38, 2-(2-hydroxyhydrocinnamoyl)-1,3-cyclopentanedione]
[2]; 6.25 mg/Kg intraperitoneally, rat of 185 mm. blood pressure
  blood pressure after injection: 25-155 mm.
[2]; 6.25 mg/Kg intraperitoneally, rat of 188 mm. blood pressure
  blood pressure after injection: 118-162 mm.
[2]; 125 mg/Kg intraperitoneally, rat of 195 mm. blood pressure
  blood pressure after injection: 155-166 mm.
[2]; [8]
  duration of the blood pressure reduction after the last oral administration: about 5 days
  reduction of blood pressure: 20-30%
[3]
  sedative effect: did not cause sleeping and the sedative effect was not recognized
[4]
  effect on blood pressure: lowered the blood pressure
[5]
  hypotensive effect: showed hypotensive effect
  side effect: without any side effect
[6]; ip, intraperitoneal injection
  LD50: 283 mg/kg
[6]; oral administration
  LD50: 550 mg/kg
[1]; at 12.5 mcg/cc
  inhibition to tyrosine hydroxylase: 30%
[1]; at 25 mcg/cc
  inhibition to tyrosine hydroxylase: 38%
[1]; at 50 mcg/cc
  inhibition to tyrosine hydroxylase: 44%
[1]
  inhibition at 0.1 mg: 52%
[1]; cofactor 2-amino-4-hydroxy-6,7-dimethyltetrahydropteridine
  relation with 2-amino-4-hydroxy-6,7-dimethyltetrahydropteridine (Lineweaver-Burk plot): competitive
[1]; substrate tyrosine
  relation with tyrosine (Lineweaver-Burk plot): uncompetitive
[7]
  sedative effect: did not cause sleeping and the sedative effect was not recognized

## O=C1CCC(=O)C1C(=O)CCc1cccc(O)c1 [Example 39, 2-(3-hydroxyhydrocinnamoyl)-1,3-cyclopentanedione]
[1]
  inhibition at 0.1 mg: 23%

## O=C1CCC(=O)C1C(=O)CCc1ccc(O)cc1 [Example 40, 2-(4-Hydroxyhydrocinnamoyl)-1,3-cyclopentanedione]
[1]
  inhibition at 0.05 mg: 32%

## COc1ccc(CCC(=O)C2C(=O)CCC2=O)cc1 [Example 41, 2-(4-Methoxyhydrocinnamoyl)-1,3-cyclopentanedione]
[1]
  inhibition at 0.1 mg: 29%

## O=C1CCC(=O)C1C(=O)CCc1ccccc1Cl [Example 42, 2-(2-chlorohydrocinnamoyl)-1,3-cyclopentanedione]
[1]
  inhibition at 0.1 mg: 10%

## O=C1CCC(=O)C1C(=O)CCc1ccc(Cl)cc1 [Example 43, 2-(4-chlorohydrocinnamoyl)-1,3-cyclopentanedione]
[1]
  inhibition at 0.1 mg: 42%

## O=C1CCC(=O)C1C(=O)CCc1cccc(F)c1 [Example 44]
[1]
  inhibition at 0.1 mg: 36%

## O=C1CCC(=O)C1C(=O)CCc1ccc(F)cc1 [Example 45, 2-(4-Fluorohydrocinnamoyl)-1,3-cyclopentanedione]
[1]
  inhibition: 62%

## O=C1CCC(=O)C1C(=O)CCc1ccccc1F [Example 46]
[1]
  inhibition: 53%

## COc1ccccc1CCC(=O)C1C(=O)CCC1=O [Example 47]
[1]
  inhibition: 7.6%

## O=C1CCC(=O)C1C(=O)CCc1ccc(Br)cc1 [Example 48]
[1]
  inhibition at 0.05 mg: 50%

## Cc1ccc(CCC(=O)C2C(=O)CCC2=O)cc1 [Example 49, 2-(4-methylhydrocinnamoyl)-1,3-cyclopentanedione]
[1]
  inhibition: 44%

## COC(=O)c1ccc(CCC(=O)C2C(=O)CCC2=O)cc1 [Example 50, 2-(4-Methoxycarbonylhydrocinnamoyl)-1,3-cyclopentanedione]
[1]
  inhibition: 41%

## COc1cccc(CCC(=O)C2C(=O)CCC2=O)c1 [Example 51]
[1]
  inhibition: 6.4%

## CCOc1ccc(CCC(=O)C2C(=O)CCC2=O)cc1 [Example 52]
[1]
  inhibition: 15.6%

## O=C1CCC(=O)C1C(=O)CCc1cccc(Br)c1 [Example 53]
[1]
  inhibition: 50.7%

## CC(C)c1ccc(CCC(=O)C2C(=O)CCC2=O)cc1 [Example 54]
[1]
  inhibition: 36.8%

## CCOC(=O)c1ccc(CCC(=O)C2C(=O)CCC2=O)cc1 [Example 55]
[1]
  inhibition: 12.8%

## CCCOC(=O)c1ccc(CCC(=O)C2C(=O)CCC2=O)cc1 [Example 56]
[1]
  inhibition: 4.6%

## N#Cc1ccc(CCC(=O)C2C(=O)CCC2=O)cc1 [Example 57]
[1]
  inhibition: 77.4%

## CN(C)c1ccc(CCC(=O)C2C(=O)CCC2=O)cc1 [Example 58]
[1]
  inhibition: 10.1%

## O=C1CCC(=O)C1C(=O)CCc1cccc(C(F)(F)F)c1 [Example 59]
[1]
  inhibition: 30.5%

## CC(=O)Oc1ccccc1CCC(=O)C1C(=O)CCC1=O [Example 60]
[1]
  inhibition at 0.1 mg: 10%

## COc1cc(CCC(=O)C2C(=O)CCC2=O)ccc1O [Example 61, 2-(4-Hydroxy-3-methoxyhydrocinnamoyl)-1,3-cyclopentanedione]
[1]; at 200 mcg/cc
  inhibition to tyrosine hydroxylase: about 10%

## O=C1CCC(=O)C1C(=O)CCc1ccc(Cl)c(Cl)c1 [Example 62, 2-(3,4-dichlorohydrocinnamoyl)-1,3-cyclopentanedione]
[1]; at 100 mcg/cc
  inhibition to tyrosine hydroxylase: 45%

## O=C1CCC(=O)C1C(=O)CCc1ccc2c(c1)OCO2 [Example 63, 2-(3,4-methylenedioxyhydrocinnamoyl)-1,3-cyclopentanedione]
[1]; at 100 mcg/cc
  inhibition to tyrosine hydroxylase: 22.5%

## COc1ccc(CCC(=O)C2C(=O)CCC2=O)cc1O [Example 64, 2-(3-hydroxy-4-methoxyhydrocinnomoyl)-1,3-cyclopentanedione]
[1]; at 200 mcg/cc
  inhibition to tyrosine hydroxylase: 29.5%

## COc1cccc(CCC(=O)C2C(=O)CCC2=O)c1O [Example 65, 2-(2-hydroxy-3-methoxyhydrocinnamoyl)-1,3-cyclopentanedione]
[1]; at 100 mcg/cc
  inhibition to tyrosine hydroxylase: 5%

## O=C1CCC(=O)C1C(=O)CCc1ccc(O)c(O)c1 [Example 66, 2-(3,4-dihydroxyhydrocinnamoyl)-1,3-cyclopentanedione]
[1]; at 100 mcg/cc
  inhibition to tyrosine hydroxylase: 85%
